For 23 compounds, IC50 results are on record in patent US9539260B2, “Dihydro-benzo-oxazine and dihydro-pyrido-oxazine derivatives” (Novartis AG, priority 2012, dated 2017).

Test [1] deals with PI3K delta (Homo sapiens (Human), UniProt O00329). Briefly: Enzymatic PI3K delta isoform inhibition (lipid kinase activity, Kinase-Glo luminescence). The test is classed as biochemical. To be noted: Enzymatic assay. As for the experimental part:
(§1) 1.1 Test of Lipid Kinase Activity […]
(§2) In a more preferred assay, the kinase reaction is performed in a final volume of 10 μl per well of a low volume non-binding CORNING, 384 well black plate (Cat. No. #3676). The final concentrations of ATP and phosphatidyl inositol (PI) in the assay are 1 μM and 10 μg/mL, respectively. The reaction is started by the addition of ATP.
(§3) The components of the assay are added per well as follows:
(§4) The Z′ value is a universal measurement of the robustness of an assay. A Z′ between 0.5 and 1.0 is considered an excellent assay.
(§5) IC50 is determined by a four parameter curve fitting routine that comes along with “excel fit”. A four parameter logistic equation is used to calculate IC50 values (IDBS XLfit) of the percentage inhibition of each compound at 8 concentrations (usually 10, 3.0, 1.0, 0.3, 0.1, 0.030, 0.010 and 0.003 μM). Alternatively, IC50 values are calculated using idbsXLfit model 204, which is a 4 parameter logistic model.
(§6) Yet alternatively, for an ATP depletion assay, compounds of the formula I to be tested are dissolved in DMSO and directly distributed into a white 384-well plate at 0.5 μl per well. To start the reaction, 10 μl of 10 nM PI3 kinase and 5 μg/mL 1-alpha-phosphatidylinositol (PI) are added into each well followed by 10 μl of 2 μM ATP. The reaction is performed until approx 50% of the ATP is depleted, and then stopped by the addition of 20 μl of Kinase-Glo solution (Promega Corp., Madison, Wis., USA). The stopped reaction is incubated for 5 minutes and the remaining ATP is then detected via luminescence. IC50 values are then determined.

The target in test [2] is PI3K alpha (Homo sapiens (Human), UniProt P42336). As to the kind of experiment: Enzymatic PI3K alpha isoform inhibition (lipid kinase activity, Kinase-Glo luminescence). The test is classed as biochemical. The following applies: Enzymatic assay. On the procedure: as §1, §2, §3, §4, §5, §6
Chain of PI3K alpha (P42336 other isoform, or with tags, fused parts or gaps): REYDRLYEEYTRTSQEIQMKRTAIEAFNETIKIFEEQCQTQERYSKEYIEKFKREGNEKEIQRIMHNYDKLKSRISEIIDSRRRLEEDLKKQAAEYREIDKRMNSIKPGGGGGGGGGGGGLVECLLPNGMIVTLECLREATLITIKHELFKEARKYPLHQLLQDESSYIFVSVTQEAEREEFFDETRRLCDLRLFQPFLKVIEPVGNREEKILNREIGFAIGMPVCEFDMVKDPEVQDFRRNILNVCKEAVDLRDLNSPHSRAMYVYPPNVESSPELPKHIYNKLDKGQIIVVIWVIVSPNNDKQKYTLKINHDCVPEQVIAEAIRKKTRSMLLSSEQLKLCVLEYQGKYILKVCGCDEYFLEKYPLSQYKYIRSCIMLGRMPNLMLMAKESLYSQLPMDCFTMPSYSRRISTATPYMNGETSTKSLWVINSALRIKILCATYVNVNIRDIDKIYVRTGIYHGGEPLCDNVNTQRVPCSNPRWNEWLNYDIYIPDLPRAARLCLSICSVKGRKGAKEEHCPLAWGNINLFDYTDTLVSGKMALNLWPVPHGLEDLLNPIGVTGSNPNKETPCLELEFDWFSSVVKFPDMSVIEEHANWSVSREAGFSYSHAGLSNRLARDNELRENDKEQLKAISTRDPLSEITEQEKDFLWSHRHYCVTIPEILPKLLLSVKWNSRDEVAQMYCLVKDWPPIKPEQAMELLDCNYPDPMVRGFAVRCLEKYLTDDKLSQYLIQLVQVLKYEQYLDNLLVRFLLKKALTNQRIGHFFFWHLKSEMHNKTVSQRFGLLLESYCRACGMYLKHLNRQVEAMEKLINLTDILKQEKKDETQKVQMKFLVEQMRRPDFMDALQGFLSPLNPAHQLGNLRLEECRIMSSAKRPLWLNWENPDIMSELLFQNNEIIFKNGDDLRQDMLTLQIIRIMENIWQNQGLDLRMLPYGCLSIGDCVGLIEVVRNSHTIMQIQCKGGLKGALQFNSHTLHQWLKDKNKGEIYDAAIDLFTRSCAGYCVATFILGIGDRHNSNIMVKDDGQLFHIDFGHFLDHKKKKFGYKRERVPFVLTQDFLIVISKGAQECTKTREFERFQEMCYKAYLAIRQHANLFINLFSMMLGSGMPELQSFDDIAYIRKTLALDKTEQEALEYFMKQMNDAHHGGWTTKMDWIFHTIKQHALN

Chain of PI3K delta (O00329 other isoform, or with tags, fused parts or gaps linker GGGGGG): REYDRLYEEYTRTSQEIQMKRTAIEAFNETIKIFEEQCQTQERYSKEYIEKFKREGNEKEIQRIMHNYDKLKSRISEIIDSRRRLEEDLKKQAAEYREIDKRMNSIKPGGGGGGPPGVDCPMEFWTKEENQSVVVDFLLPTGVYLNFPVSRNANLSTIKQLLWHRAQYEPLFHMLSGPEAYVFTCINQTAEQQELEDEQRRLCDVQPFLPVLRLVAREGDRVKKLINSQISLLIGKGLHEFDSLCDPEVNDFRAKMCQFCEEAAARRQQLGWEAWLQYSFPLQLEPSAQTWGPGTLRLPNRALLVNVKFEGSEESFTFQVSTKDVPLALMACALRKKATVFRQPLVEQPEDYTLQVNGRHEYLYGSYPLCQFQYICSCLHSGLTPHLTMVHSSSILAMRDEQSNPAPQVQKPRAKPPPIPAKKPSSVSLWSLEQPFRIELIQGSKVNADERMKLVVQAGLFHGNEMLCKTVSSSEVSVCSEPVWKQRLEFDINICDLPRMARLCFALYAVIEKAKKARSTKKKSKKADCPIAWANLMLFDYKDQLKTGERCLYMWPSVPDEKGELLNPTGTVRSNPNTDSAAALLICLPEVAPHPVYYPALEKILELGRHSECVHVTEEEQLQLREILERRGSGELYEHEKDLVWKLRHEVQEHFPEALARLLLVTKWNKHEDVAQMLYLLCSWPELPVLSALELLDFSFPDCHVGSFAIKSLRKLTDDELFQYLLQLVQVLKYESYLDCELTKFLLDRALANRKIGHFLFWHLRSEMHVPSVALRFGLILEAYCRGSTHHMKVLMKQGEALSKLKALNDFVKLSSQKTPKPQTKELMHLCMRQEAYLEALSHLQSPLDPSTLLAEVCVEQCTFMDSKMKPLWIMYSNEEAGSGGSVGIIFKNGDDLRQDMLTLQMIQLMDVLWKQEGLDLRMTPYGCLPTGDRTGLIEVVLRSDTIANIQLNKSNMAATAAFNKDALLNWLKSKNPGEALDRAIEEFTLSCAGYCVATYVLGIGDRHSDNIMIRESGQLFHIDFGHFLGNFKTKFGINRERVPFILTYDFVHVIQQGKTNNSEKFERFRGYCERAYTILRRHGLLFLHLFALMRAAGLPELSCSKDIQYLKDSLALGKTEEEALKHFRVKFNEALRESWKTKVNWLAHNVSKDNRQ

Regarding `COc1ncc(N2CCOc3ccc(O[C@H]4CCN(C(=O)C5CCCCC5)C4)cc32)cc1C#N` [Example D13, 5-[6-((S)-1-Cyclohexanecarbonyl-pyrrolidin-3-yloxy)-2,3-dihydro-benzo[1,4]oxazin-4-yl]-2-methoxy-nicotinonitrile], the IC50 (usually the midpoint of a concentration-inhibition curve) in test [1] came out at 5 nM; in test [2] it was 522 nM.

`CNc1cc(N2CCOc3ccc(O[C@H]4CCN(C(=O)C5CCOCC5)C4)cc32)cnc1S(C)(=O)=O` [Example B77, {(S)-3-[4-(6-Methanesulfonyl-5-methylamino-pyridin-3-yl)-3,4-dihydro-2H-benzo[1,4]oxazin-6-yloxy]-pyrrolidin-1-yl}-(tetrahydro-pyran-4-yl)-methanone]: the IC50 in test [1] came out at 32 nM; in test [2], 897 nM.

Consider `Cc1cc(N2CCOc3ccc(O[C@H]4CCN(C(=O)C5CCS(=O)(=O)CC5)C4)cc32)cnc1Cl` [Example B60, {(S)-3-[4-(6-Chloro-5-methyl-pyridin-3-yl)-3,4-dihydro-2H-benzo[1,4]oxazin-6-yloxy]-pyrrolidin-1-yl}-(1,1-dioxo-hexahydro-1lambda*6*-thiopyran-4-yl)-methanone], for which the IC50 in test [1] came out at 11 nM; in test [2], 463 nM.

For the compound `COc1ncc(N2CCOc3ccc(O[C@H]4CCN(C(=O)c5ocnc5C)C4)cc32)cc1C#N` [Example D33, 2-Methoxy-5-{6-[(S)-1-(4-methyl-oxazole-5-carbonyl)-pyrrolidin-3-yloxy]-2,3-dihydro-benzo[1,4]oxazin-4-yl}-nicotinonitrile], the values for the IC50 in test [1] and in test [2] were 8 nM and 117 nM, respectively.

Regarding `COc1ncc(N2CCOc3cnc(O[C@H]4CCN(C(=O)C5CCS(=O)(=O)CC5)C4)cc32)cc1F` [Example F2, (1,1-Dioxo-hexahydro-1lambda*6*-thiopyran-4-yl)-{(S)-3-[1-(5-fluoro-6-methoxy-pyridin-3-yl)-2,3-dihydro-1H-pyrido[3,4-b][1,4]oxazin-7-yloxy]-pyrrolidin-1-yl}-methanone], the IC50 was found to be 5 nM in test [1] and 725 nM in test [2].

For `Cc1cc(N2CCOc3ccc(O[C@H]4CCN(c5ncccn5)C4)cc32)cnc1S(C)(=O)=O` [N, 4-(6-Methanesulfonyl-5-methyl-pyridin-3-yl)-6-((S)-1-pyrimidin-2-yl-pyrrolidin-3-yloxy)-3,4-dihydro-2H-benzo[1,4]oxazine], the values for the IC50 in test [1] and in test [2] were 12 nM and 838 nM, respectively.

Regarding `Cn1cnc(C(=O)N2CC[C@H](Oc3ccc4c(c3)N(c3cnc(S(C)(=O)=O)c(C(F)F)c3)CCO4)C2)c1` [Example B74], the values for the IC50 in test [1] and in test [2] were 9 nM and 54 nM, respectively.

For `COC(=O)N1CC[C@H](Oc2ccc3c(c2)N(c2cnc(OC)c(C#N)c2)CCO3)C1` [Example D11, (S)-3-[4-(5-Cyano-6-methoxy-pyridin-3-yl)-3,4-dihydro-2H-benzo[1,4]oxazin-6-yloxy]-pyrrolidine-1-carboxylic acid methyl ester], the IC50 is 19 nM in test [1] and 442 nM in test [2].

For the compound `COc1ncc(N2CCOc3ccc(O[C@H]4CCN(C(=O)C5CCOC5)C4)cc32)cc1F` (stereo partly drawn) [Example B98, {(S)-3-[4-(5-Fluoro-6-methoxy-pyridin-3-yl)-3,4-dihydro-2H-benzo[1,4]oxazin-6-yloxy]-pyrrolidin-1-yl}-(tetrahydro-furan-3-yl)-methanone], the values for the half-inhibitory concentration (IC50) in test [1] and in test [2] were 13 nM and 910 nM, respectively.

As for `COc1ncc(N2CCOc3ccc(O[C@H]4CCN(C(=O)c5cn(C)nc5C)C4)cc32)cc1C#N` [Example C18, 5-{6-[(S)-1-(1,3-Dimethyl-1H-pyrazole-4-carbonyl)-pyrrolidin-3-yloxy]-2,3-dihydro-benzo[1,4]oxazin-4-yl}-2-methoxy-nicotinonitrile], the half-inhibitory concentration (IC50) in test [1] was 12 nM; in test [2] it was 425 nM.

Turning to `CCC(=O)N1CC[C@H](Oc2ccc3c(c2)N(c2ccc(OC)nc2)CCO3)C1` [Example C4, 1-{(S)-3-[4-(6-Methoxy-pyridin-3-yl)-3,4-dihydro-2H-benzo[1,4]oxazin-6-yloxy]-pyrrolidin-1-yl}-propan-1-one], the values for the half-inhibitory concentration (IC50) in test [1] and in test [2] were 28 nM and 3000 nM, respectively.

Regarding `COc1ncc(N2CCOc3ccc(O[C@H]4CCN(C(=O)[C@H]5CC[C@@H](O)CC5)C4)cc32)cc1F` [Example B118, {(S)-3-[4-(5-Fluoro-6-methoxy-pyridin-3-yl)-3,4-dihydro-2H-benzo[1,4]oxazin-6-yloxy]-pyrrolidin-1-yl}-(4-hydroxy-cyclohexyl)-methanone], the IC50 in test [1] was 10 nM; in test [2] it was 498 nM.

On to `CC(C)S(=O)(=O)c1cncc(N2CCOc3ccc(O[C@H]4CCN(C(=O)C5CCS(=O)(=O)CC5)C4)cc32)c1` [Example B29, (1,1-Dioxo-hexahydro-1lambda*6*-thiopyran-4-yl)-((S)-3-{4-[5-(propane-2-sulfonyl)-pyridin-3-yl]-3,4-dihydro-2H-benzo[1,4]oxazin-6-yloxy}-pyrrolidin-1-yl)-methanone], for which the concentration for half-maximal inhibition (IC50) turned out to be 41 nM in test [1] and 558 nM in test [2].

On to `COc1cc(N2CCOc3ccc(O[C@H]4CCN(C(=O)C5CCOC5)C4)cc32)cnc1OC` (stereo partly drawn) [Example B40, {(S)-3-[4-(5,6-Dimethoxy-pyridin-3-yl)-3,4-dihydro-2H-benzo[1,4]oxazin-6-yloxy]-pyrrolidin-1-yl}-(tetrahydro-furan-3-yl)-methanone], for which the results for the IC50 in test [1] and in test [2] were 12 nM and 249 nM, respectively.

In the case of `COc1ncc(N2CCOc3ccc(O[C@H]4CCN(C(=O)[C@H]5CC[C@H](O)CC5)C4)cc32)cc1F` [Example B117, {(S)-3-[4-(5-Fluoro-6-methoxy-pyridin-3-yl)-3,4-dihydro-2H-benzo[1,4]oxazin-6-yloxy]-pyrrolidin-1-yl}-(4-hydroxy-cyclohexyl)-methanone], the values for the half-inhibitory concentration (IC50) in test [1] and in test [2] were 8 nM and 1210 nM, respectively.

Turning to `CCC(=O)N1CC[C@H](Oc2ccc3c(c2)N(c2cnc(OC)c(Cl)c2)CCO3)C1` [Example A12, 1-{(S)-3-[4-(5-Chloro-6-methoxy-pyridin-3-yl)-3,4-dihydro-2H-benzo[1,4]oxazin-6-yloxy]-pyrrolidin-1-yl}-propan-1-one], the figures for the IC50 in test [1] and in test [2] were 3 nM and 182 nM, respectively.

In the case of `COc1cc(N2CCOc3ccc(O[C@H]4CCN(C(=O)CCS(C)(=O)=O)C4)cc32)cnc1OC` [Example B45, 1-{(S)-3-[4-(5,6-Dimethoxy-pyridin-3-yl)-3,4-dihydro-2H-benzo[1,4]oxazin-6-yloxy]-pyrrolidin-1-yl}-3-methanesulfonyl-propan-1-one], the concentration for half-maximal inhibition (IC50) in test [1] came out at 74.5 nM; in test [2], 574 nM.

For `COc1ncc(N2CCOc3ccc(O[C@H]4CCN(C(=O)C5CCC(=O)N5)C4)cc32)cc1C#N` (stereo partly drawn) [Example C23, 2-Methoxy-5-{6-[(S)-1-(5-oxo-pyrrolidine-2-carbonyl)-pyrrolidin-3-yloxy]-2,3-dihydro-benzo[1,4]oxazin-4-yl}-nicotinonitrile], the half-maximal inhibitory concentration (IC50) in test [1] was determined as 32 nM; in test [2] it was 658 nM.

On to `COc1ncc(N2CCOc3ccc(O[C@H]4CCN(C(=O)C5CCN(C(C)=O)CC5)C4)cc32)cc1C` [Example B90, 1-(4-{(S)-3-[4-(6-Methoxy-5-methyl-pyridin-3-yl)-3,4-dihydro-2H-benzo[1,4]oxazin-6-yloxy]-pyrrolidine-1-carbonyl}-piperidin-1-yl)-ethanone], for which the values for the half-inhibitory concentration (IC50) in test [1] and in test [2] were 11 nM and 1460 nM, respectively.

On to `COc1ncc(N2CCOc3ccc(O[C@H]4CCN(C(=O)CS(C)(=O)=O)C4)cc32)cc1Cl` [Example B110, 1-{(S)-3-[4-(5-Chloro-6-methoxy-pyridin-3-yl)-3,4-dihydro-2H-benzo[1,4]oxazin-6-yloxy]-pyrrolidin-1-yl}-2-methanesulfonyl-ethanone], for which the IC50 in test [1] is 3 nM; in test [2] it was 148 nM.

Consider `COc1cc(N2CCOc3ccc(O[C@H]4CCN(C(=O)C5CCS(=O)(=O)CC5)C4)cc32)cnc1OC` [Example B47, {(S)-3-[4-(5,6-Dimethoxy-pyridin-3-yl)-3,4-dihydro-2H-benzo[1,4]oxazin-6-yloxy]-pyrrolidin-1-yl}-(1,1-dioxo-hexahydro-1lambda*6*-thiopyran-4-yl)-methanone], for which the IC50 in test [1] came out at 10.7 nM; in test [2], 241 nM.

Turning to `CCc1cc(N2CCOc3ccc(O[C@H]4CCN(C(=O)C5CCS(=O)(=O)CC5)C4)cc32)cnc1OC` [Example B19, (1,1-Dioxo-hexahydro-1lambda*6*-thiopyran-4-yl)-{(S)-3-[4-(5-ethyl-6-methoxy-pyridin-3-yl)-3,4-dihydro-2H-benzo[1,4]oxazin-6-yloxy]-pyrrolidin-1-yl}-methanone], the half-maximal inhibitory concentration (IC50) in test [1] came out at 33 nM; in test [2] it was 1160 nM.

In the case of `Cc1cc(N2CCOc3ccc(O[C@H]4CCN(C(=O)C5COCCO5)C4)cc32)cnc1S(C)(=O)=O` (single isomer, unassigned) [Example H3], the IC50 in test [1] is 8 nM; in test [2] it was 559 nM.
